Values of other authors, collected in patent publication US20070098750A1, “PESTICIDAL COMPOSITIONS CONTAINING ISOPROPYL MYRISTATE AND ANALOGS OF SAME AS A SYNERGIST FOR PLANT ESSENTIAL OILS” (EcoSmart Technologies, Inc., priority 2005, published 2007).

For `CCCCOCCOCCOCc1cc2c(cc1CCC)OCO2` [PBO, piperonyl butoxide], the Chronic toxicity finding (even at the lowest doses, 30 mg/kg/day) is given as “increased liver weights” and the “Carcinogenicity finding in animal studies” value (even treatments as low as 1.2%) is given as “hepatocellular carcinomas”.
